In patent publication US8080569B2, “Imidazo[2,1-b]thiazoles and their use as pharmaceuticals” (Sanofi-Aventis, priority 2006, dated 2011):

Tested on: eNOS promoter
Test: Activation of eNOS transcription (eNOS promoter-luciferase reporter in human endothelial cell line)
Type: cell-based
Conditions: human endothelial cell line stably transfected with eNOS promoter-luciferase construct, 18 h incubation, EC50 determined graphically; read-out: EC50 values of transcription induction ratios (TIR)
Protocol: A) Activation of eNOS Transcription
Activation of eNOS transcription was measured as described in detail by Li et al., “Activation of protein kinase C alpha and/or epsilon enhances transcription of the human endothelial nitric oxide synthase gene”, Mol. Pharmacol. 53 (1998), 630-637. Briefly, a 3.5 kB long fragment 5′ of the starting codon of the eNOS gene was cloned, sequenced and cloned in firefly luciferase expression plasmids to monitor activation of the eNOS promoter by reporter gene activity. A human endothelial cell line stable transfected and expressing this promoter-reporter construct was used for compound testing. Cells were incubated for 18 h with the compounds.
All compounds were dissolved in sterile dimethyl sulfoxide (DMSO). A final concentration of 0.5% DMSO in complete medium was allowed. Induction of reporter gene expression in these cells was measured using a standard luciferase assay system (Promega, Cat. No. E150) according to the manufacturer's instructions. Luciferase induction in cells incubated with compounds were compared to those incubated with solvent alone. The ratio of both activities (transcription induction ratio, TIR) was plotted as a function of compound concentration. Typically, TIR values started at low concentrations at a ratio of 1, indicating no compound effect, and extended up to a maximum TIR value TIR(max) which indicates the increase of the eNOS transcription. EC50 values of transcription induction ratios as a function of compound concentration were determined graphically.

| SMILES | EC50 [nM] |
| --- | --- |
| CCOC(=O)c1sc2nc(-c3ccc(C)cc3)cn2c1C [Example 3, 3-Methyl-6-p-tolyl-imidazo[2,1-b]thiazole-2-carboxylic acid ethyl ester] | < 500 |
| Cc1c(C(=O)NC(C)(C)C)sc2nc(-c3ccc(F)cc3)cn12 [Example 10, 6-(4-Fluoro-phenyl)-3-methyl-imidazo[2,1-b]thiazole-2-carboxylic acid tert-butylamide] | < 500 |
| Fc1ccc(-c2cn3cc(Br)sc3n2)cc1 [Example 22, 2-Bromo-6-(4-fluoro-phenyl)-imidazo[2,1-b]thiazole] | < 500 |

Further lines, results first:

| EC50 [nM] | SMILES |
| --- | --- |
| < 500 | CCOC(=O)c1sc2nc(-c3ccc(F)cc3)cn2c1C [Example 1, 6-(4-Fluoro-phenyl)-3-methyl-imidazo[2,1-b]thiazole-2-carboxylic acid ethyl ester] |
| < 500 | CCOC(=O)c1sc2nc(-c3cccc(Cl)c3)cn2c1C [Example 2, 6-(3-Chloro-phenyl)-3-methyl-imidazo[2,1-b]thiazole-2-carboxylic acid ethyl ester] |
